Measurements taken from US20260183320A1, “METHOD FOR TREATING CANCER BY COMBINING ALKYLATING AGENT PRODRUG AND CELL CYCLE INHIBITOR” (ASCENTAWITS PHARMACEUTICALS, LTD., priority 2022, published 2026).

Tests used:
[1] = tested on: wild-type p53-expressing (H460) cell line; assay: CTG cell proliferation assay, H460 cell line; type: cell-based; details: for IC50: Homo sapiens, 72 h
Method: (§1) Each CTG cell proliferation assay included the steps as follows: • 1) An H460 or HT29 cell suspension was added to a 96-well plate at 100 μL per well so that each well contained 2000 or 10000 cells. • 2) The cells were incubated overnight at 37° C. in an incubator with 5% CO2. • 3) Treatment with Compounds
(§2) Combination therapy: 1 μL of adavosertib (at four concentrations), AZD7762 (at four concentrations), palbociclib (at four concentrations) or ceralasertib (at three concentrations) was added to each well and shaken gently until homogeneous mixing.
(§3) 7) Chemiluminescence was read for 1000 ms on a multimode microplate reader. • 8) IC50 (half-maximal inhibitory concentration) values of the compounds were calculated using the GraphPad Prism 5 software. 1.

[2] = tested on: p53-deficient (HT29) cell line; assay: CTG cell proliferation assay, HT29 cell line; type: cell-based; details: for IC50: Homo sapiens, 72 h
Method: as §1, §2, §3

[3] = H460 (wild-type p53), all concentrations
[4] = H460 (wild-type p53), both drugs at low concentrations
[5] = HT29 (p53-deficient), various concentrations, also low

In the case of `O=[N+]([O-])c1ccc(C(OP(=O)(N2CC2)N2CC2)C(F)(F)F)cc1Oc1ccc(-c2ccc(F)cc2)c(F)c1` (stereo not shown) [AST], the “additive cytotoxic effect in combination therapy with AZD7762” value (“additive cytotoxic effect … with AZD7762” for short) ([1]; H460 (wild-type p53), AZD7762 160 nM) is reported as “certain additive cytotoxic effects”, the “additive cytotoxic effect in combination therapy with adavosertib” value (shortened to “additive cytotoxic effect … with adavosertib”) [1, 3] is reported as “did not exhibit any additive toxic effects” and the “additive cytotoxic effect in combination therapy with palbociclib” value (from here on “additive cytotoxic effect … with palbociclib”) [1, 3] is reported as “did not exhibit any significant additive cytotoxic effects”. For the same molecule, the “additive cytotoxic effect … with AZD7762” value [1, 4] was “not significant”, the “additive cytotoxic effect … with adavosertib” value [1, 4] was “not significant” and the “additive cytotoxic effect in combination therapy with ceralasertib” value (shortened to “additive cytotoxic effect … with ceralasertib”) [1, 4] was “not significant”. The “additive cytotoxic effect … with AZD7762” value ([1]; H460 (wild-type p53), medium and high concentrations) was “certain additive cytotoxic effects”, the “additive cytotoxic effect … with ceralasertib” value ([1]; H460 (wild-type p53), medium or high concentration) was “certain additive cytotoxic effects” and the “additive cytotoxic effect … with adavosertib” value ([1]; H460 (wild-type p53), medium or high concentrations) was “certain additive cytotoxic effects”. For the same molecule, the “additive cytotoxic effect … with AZD7762” value ([1]; H460 (wild-type p53), other concentrations than 160 nM AZD7762) was “did not exhibit any additive cytotoxic effects”, the Ratio single/combo ([1]; H460, IC50 monotherapy / IC50 with 0.5 nM AZD7762) was 1.20 and the Ratio single/combo ([1]; H460, IC50 monotherapy / IC50 with 0.5 nM adavosertib) was 1.24. It also gave a Ratio single/combo ([1]; H460, IC50 monotherapy / IC50 with 6.4 nM AZD7762) of 1.00, a Ratio single/combo ([1]; H460, IC50 monotherapy / IC50 with 6.4 nM adavosertib) of 0.90 and a Ratio single/combo ([1]; H460, IC50 monotherapy / IC50 with 160 nM AZD7762) of 3.81. It also gave a Ratio single/combo ([1]; H460, IC50 monotherapy / IC50 with 160 nM adavosertib) of 1.19, a Ratio single/combo ([1]; H460, IC50 monotherapy / IC50 with 800 nM adavosertib) of 1.41 and a Ratio combo/single ([1]; H460, IC50 with 0.05 nM palbociclib / IC50 monotherapy) of 1.08. It also gave a Ratio combo/single ([1]; H460, IC50 with 0.64 nM palbociclib / IC50 monotherapy) of 1.35, a Ratio combo/single ([1]; H460, IC50 with 400 nM palbociclib / IC50 monotherapy) of 2.55 and an IC50 ([1]; NCI-H460, 72 h, H460, monotherapy) of 4.08 nM. For the same molecule, the IC50 ([1]; NCI-H460, H460, with 0.05 nM palbociclib (2 h pretreatment)) was 4.39 nM, the IC50 ([1]; NCI-H460, H460, with 0.5 nM AZD7762 (2 h pretreatment)) was 3.4 nM and the IC50 ([1]; NCI-H460, H460, with 0.5 nM adavosertib (2 h pretreatment)) was 3.29 nM. For the same molecule, the IC50 ([1]; NCI-H460, H460, with 0.64 nM palbociclib (2 h pretreatment)) was 5.5 nM, the IC50 ([1]; NCI-H460, H460, with 6.4 nM AZD7762 (2 h pretreatment)) was 4.08 nM and the IC50 ([1]; NCI-H460, H460, with 6.4 nM adavosertib (2 h pretreatment)) was 4.53 nM. The IC50 ([1]; NCI-H460, H460, with 160 nM AZD7762 (2 h pretreatment)) was 1.07 nM, the IC50 ([1]; NCI-H460, H460, with 160 nM adavosertib (2 h pretreatment)) was 3.44 nM and the IC50 ([1]; NCI-H460, H460, with 400 nM palbociclib (2 h pretreatment)) was 10.4 nM. The IC50 ([1]; NCI-H460, H460, with 800 nM adavosertib (2 h pretreatment)) was 2.89 nM, the “additive cytotoxic effect … with palbociclib” value ([2]; HT29 (p53-deficient), drugs at low concentrations) was “certain additive cytotoxic effects” and the “additive cytotoxic effect … with ceralasertib” value ([2]; HT29 (p53-deficient), various concentrations) was “significant additive cytotoxic effects”. For the same molecule, the “additive cytotoxic effect … with AZD7762” value [2, 5] was “significant additive cytotoxic effects”, the “additive cytotoxic effect … with adavosertib” value [2, 5] was “significant additive cytotoxic effects” and the “additive cytotoxic effect … with palbociclib” value [2, 5] was “significant additive cytotoxic effects”. It also gave a Ratio single/combo ([2]; HT29, IC50 monotherapy / IC50 with 100 nM AZD7762) of 95.61, a Ratio single/combo ([2]; HT29, IC50 monotherapy / IC50 with 100 nM adavosertib) of 44.97 and a Ratio single/combo ([2]; HT29, IC50 monotherapy / IC50 with 130 nM AZD7762) of 105.70. The Ratio single/combo ([2]; HT29, IC50 monotherapy / IC50 with 130 nM adavosertib) was 95.54, the Ratio single/combo ([2]; HT29, IC50 monotherapy / IC50 with 160 nM AZD7762) was 107.78 and the Ratio single/combo ([2]; HT29, IC50 monotherapy / IC50 with 160 nM adavosertib) was 114.24. The IC50 ([2]; HT-29, 72 h, HT29, monotherapy) was 1370 nM, the IC50 ([2]; HT-29, HT29, with 50 nM palbociclib (2 h pretreatment)) was 1060 nM and the IC50 ([2]; HT-29, HT29, with 100 nM AZD7762 (2 h pretreatment)) was 14.3 nM. For the same molecule, the IC50 ([2]; HT-29, HT29, with 100 nM adavosertib (2 h pretreatment)) was 30.5 nM, the IC50 ([2]; HT-29, HT29, with 130 nM AZD7762 (2 h pretreatment)) was 13 nM and the IC50 ([2]; HT-29, HT29, with 130 nM adavosertib (2 h pretreatment)) was 14.4 nM. For the same molecule, the IC50 ([2]; HT-29, HT29, with 160 nM AZD7762 (2 h pretreatment)) was 12.7 nM, the IC50 ([2]; HT-29, HT29, with 160 nM adavosertib (2 h pretreatment)) was 12 nM and the IC50 ([2]; HT-29, HT29, with 1000 nM palbociclib (2 h pretreatment)) was 1740 nM. It also gave an IC50 ([2]; HT-29, HT29, with 5000 nM palbociclib (2 h pretreatment)) of 1570 nM.
